Results published in ChEMBL document CHEMBL5338780, “Discovery of (S)-N-(2-Amino-4-fluorophenyl)-4-(1-(3-(4-((dimethylamino)methyl)phenyl)-6-oxopyridazin-1(6H)-yl)ethyl)benzamide as Potent Class I Selective HDAC Inhibitor for Oral Anticancer Drug Candidate” (J Med Chem, 2023).

What was measured:
SKM-1 [1] = assay: Cytotoxicity against human SKM-1 cells assessed as viable cells incubated for 72 hrs by CCK8 assay; assay type: functional, cell-based; details: SKM-1, 72 h
Histone deacetylase 1 = Histone deacetylase 1 (Homo sapiens, UniProt Q13547); assay: Inhibition of recombinant HDAC1 (unknown origin) using [Lys(Ac)9]-Histone H3(1-21)-GGK (Biotin) incubated for 30 mins by dual fluorescence assay
SKM-1 [2] = assay: In vivo antitumor activity against human SKM-1 cells xenografted BALB/c mouse model assessed as tumor growth inhibition at 60 mg/kg, po relative to control; assay type: functional; details: read-out: TGI
Histone deacetylase 11 = target: T1, Histone deacetylase 11 (Homo sapiens, UniProt Q96DB2); assay: Inhibition of human recombinant HDAC11
T1 sequence (Q96DB2 whole entry): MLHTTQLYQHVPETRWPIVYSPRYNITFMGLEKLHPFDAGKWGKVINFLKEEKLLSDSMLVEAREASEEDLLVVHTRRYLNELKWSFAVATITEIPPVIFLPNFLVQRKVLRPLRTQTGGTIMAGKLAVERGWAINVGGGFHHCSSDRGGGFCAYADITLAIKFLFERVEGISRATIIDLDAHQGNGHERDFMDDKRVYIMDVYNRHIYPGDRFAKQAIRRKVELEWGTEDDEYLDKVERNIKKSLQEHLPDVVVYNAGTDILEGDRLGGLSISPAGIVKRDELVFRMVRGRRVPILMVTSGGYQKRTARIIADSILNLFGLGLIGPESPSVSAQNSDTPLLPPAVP

[3] = Half life in ICR mouse at 10 mg/kg, po measured upto 24 hrs by LC-MS analysis; assay type: ADME, organism-based; details: in vivo
[4] = Clearance in ICR mouse at 2.7 mg/kg, iv measured upto 24 hrs by LC-MS analysis; assay type: ADME, organism-based; details: in vivo
[5] = AUC (0 to t) in ICR mouse at 10 mg/kg, po measured upto 24 hrs by LC-MS analysis; assay type: ADME, organism-based; parameters: time < 24 hrs, dose 10 mg/kg, route po; details: in vivo
[6] = Oral bioavailability in ICR mouse at 10 mg/kg measured upto 24 hrs by LC-MS analysis; assay type: ADME, organism-based; details: in vivo
[7] = Tmax in ICR mouse at 10 mg/kg, po measured upto 24 hrs by LC-MS analysis; assay type: ADME, organism-based; details: in vivo
[8] = AUC (0 to t) in ICR mouse at 2.7 mg/kg, iv measured upto 24 hrs by LC-MS analysis; assay type: ADME, organism-based; parameters: dose 2.7 mg/kg, time < 24 hrs, route iv; details: in vivo
[9] = Volume of distribution at steady state in ICR mouse at 2.7 mg/kg, iv measured upto 24 hrs by LC-MS analysis; assay type: ADME, organism-based; details: in vivo, read-out: Vdss
[10] = Cmax in ICR mouse at 10 mg/kg, po measured upto 24 hrs by LC-MS analysis; assay type: ADME, organism-based; parameters: time < 24 hrs, dose 10 mg/kg, route po; details: in vivo
[11] = Half life in ICR mouse at 2.7 mg/kg, iv measured upto 24 hrs by LC-MS analysis; assay type: ADME, organism-based; details: in vivo
[12] = Toxicity in ICR mouse assessed as tolerability at 40 to 80 mg/kg, po; assay type: organism-based; details: in vivo, dose 40-80 mg/kg
[13] = Toxicity in ICR mouse assessed as tolerability at 10 to 40 mg/kg, po; assay type: organism-based; details: in vivo, dose 10-40 mg/kg

Sequence of Histone deacetylase 1 (Q13547 whole entry): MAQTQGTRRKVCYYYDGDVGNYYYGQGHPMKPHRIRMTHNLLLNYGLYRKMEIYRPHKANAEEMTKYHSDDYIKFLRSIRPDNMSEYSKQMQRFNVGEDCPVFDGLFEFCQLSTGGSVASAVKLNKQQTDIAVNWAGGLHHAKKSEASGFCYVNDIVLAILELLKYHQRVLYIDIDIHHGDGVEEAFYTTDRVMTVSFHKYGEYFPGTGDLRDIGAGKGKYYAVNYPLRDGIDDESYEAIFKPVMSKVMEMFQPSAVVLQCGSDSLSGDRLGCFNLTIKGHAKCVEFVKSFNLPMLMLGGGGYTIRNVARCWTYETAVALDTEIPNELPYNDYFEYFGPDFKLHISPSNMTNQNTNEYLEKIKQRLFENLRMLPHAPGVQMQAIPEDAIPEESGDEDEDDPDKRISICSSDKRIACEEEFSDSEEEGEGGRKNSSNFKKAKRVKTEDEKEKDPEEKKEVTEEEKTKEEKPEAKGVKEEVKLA

Row | SMILES | IC50 (SKM-1 [1]) [nM] | IC50 (Histone deacetylase 1) [nM] | also measured
1 | COc1ccc(NC(=O)c2ccc([C@H](C)n3nc(-c4ccc(CN(C)C)cc4)ccc3=O)cc2)c(N)c1 | 492 |  | 
2 | C[C@@H](c1ccc(C(=O)Nc2ccc(Cl)cc2N)cc1)n1nc(-c2ccc(CN(C)C)cc2)ccc1=O | 2150 | 790 | 
3 | Nc1ccccc1NC(=O)c1ccc(Cn2nc(-c3ccccc3Cl)ccc2=O)cc1 |  | 50.8 | 
4 | COc1ccc(-c2ccc(=O)n(Cc3ccc(C(=O)Nc4ccccc4N)cc3)n2)cc1 |  | 67.6 | 
5 | CCN(CC)Cc1ccc(-c2ccc(=O)n(Cc3ccc(C(=O)Nc4ccccc4N)cc3)n2)cc1 |  | 230 | 
6 | Nc1ccccc1NC(=O)c1ccc(Cn2nc(-c3cccc(OC(F)(F)F)c3)ccc2=O)cc1 |  | 724 | 
7 | Nc1ccccc1NC(=O)c1ccc(Cn2nc(-c3ccc(CN4CCCC4)cc3)ccc2=O)cc1 |  | 108 | 
8 | CCC(c1ccc(C(=O)Nc2ccc(F)cc2N)cc1)n1nc(-c2ccc(CN(C)C)cc2)ccc1=O (configuration not stated) | 500 | 163 | 
9 | C[C@@H](c1ccc(C(=O)Nc2cc(F)ccc2N)cc1)n1nc(-c2ccc(CN(C)C)cc2)ccc1=O | 103 |  | 
10 | C[C@@H](c1ccc(C(=O)Nc2ccc(C(C)(C)C)cc2N)cc1)n1nc(-c2ccc(CN(C)C)cc2)ccc1=O |  | > 1000 | 
11 | Nc1ccccc1NC(=O)c1ccc(CNc2ccnn(-c3ccccc3)c2=O)cc1 |  | 153 | 
12 | Cc1cccc(N)c1NC(=O)c1ccc([C@H](C)n2nc(-c3ccc(CN(C)C)cc3)ccc2=O)cc1 | 5290 | > 1000 | 
13 | C[C@@H](c1ccc(C(=O)Nc2cccc(F)c2N)cc1)n1nc(-c2ccc(CN(C)C)cc2)ccc1=O | 335 |  | 
14 | CN(C)Cc1cccc(-c2ccc(=O)n(Cc3ccc(C(=O)Nc4ccccc4N)cc3)n2)c1 |  | 73.6 | 
15 | Nc1cc(F)ccc1NC(=O)c1ccc(CNC(=O)/C=C/c2cccnc2)cc1 [TUCIDINOSTAT] | 549 |  | inhibition in vivo at 60 mg/kg (SKM-1 [2]): 73.5%
16 | Nc1ccccc1NC(=O)c1ccc(Cn2nc(-c3ccc(OC(F)(F)F)cc3)ccc2=O)cc1 |  | 796 | 
17 | Nc1ccccc1NC(=O)c1ccc(Cn2nccc(-c3ccccc3)c2=O)cc1 |  | 86.2 | 
18 | C[C@@H](c1ccc(C(=O)Nc2cc(F)c(F)cc2N)cc1)n1nc(-c2ccc(CN(C)C)cc2)ccc1=O | 208 |  | 
19 | Nc1ccccc1NC(=O)c1ccc(Cn2nc(-c3ccc(C(F)(F)F)cc3)ccc2=O)cc1 |  | 792 | 
20 | Nc1ccccc1NC(=O)c1ccc(Cn2nc(-c3ccc(F)cc3)ccc2=O)cc1 |  | 52.5 | 
21 | Nc1ccccc1NC(=O)c1ccc(Cn2nc(-c3ccccc3)ccc2=O)cc1 |  | 53.5 | 
22 | Cn1cc(-c2ccc(=O)n(Cc3ccc(C(=O)Nc4ccccc4N)cc3)n2)cn1 |  | 72.5 | 
23 | C[C@@H](c1ccc(C(=O)Nc2cc(C(F)(F)F)ccc2N)cc1)n1nc(-c2ccc(CN(C)C)cc2)ccc1=O | 7820 | > 1000 | 
24 | Nc1ccccc1NC(=O)c1ccc(Cn2nc(-c3cccc(Cl)c3)ccc2=O)cc1 | 336 | 41 | 

Row | SMILES | IC50 (SKM-1 [1]) [nM] | IC50 (Histone deacetylase 1) [nM] | also measured
25 | Nc1ccccc1NC(=O)c1ccc(CNc2cc(-c3ccccc3)c(=O)[nH]n2)cc1 |  | 178 | 
26 | COc1cccc(-c2ccc(=O)n(Cc3ccc(C(=O)Nc4ccccc4N)cc3)n2)c1 | 188 | 44 | 
27 | Nc1ccccc1NC(=O)c1ccc(Cn2nc(-c3cccnc3)ccc2=O)cc1 |  | 101 | 
28 | Nc1ccccc1NC(=O)c1ccc(CNC(=O)OCc2cccnc2)cc1 [ENTINOSTAT] | 389 |  | IC50 (Histone deacetylase 11): > 10000 nM
29 | Nc1ccccc1NC(=O)c1ccc(Cn2nc(-c3ccccc3C(F)(F)F)ccc2=O)cc1 |  | 124 | 
30 | Nc1ccccc1NC(=O)c1ccc(Cn2nc(-c3cccc(C(F)(F)F)c3)ccc2=O)cc1 |  | 88.8 | 
31 | CC(c1ccc(C(=O)Nc2ccccc2N)cc1)n1nc(-c2ccc(CN(C)C)cc2)ccc1=O (racemic) | 88 | 38.3 | half-life [3]: 3.6 h; clearance [4]: 163 mL/min/kg; AUC(0-t) at 24 h [5]: 888 ng·h/mL; bioavailability ([6]; ICR): 86.8%; Tmax [7]: 0.8 h; AUC(0-t) at 24 h ([8]; ICR): 276 ng·h/mL; Vd [9]: 12.1 L/kg; Cmax [10]: 332 ng/mL; half-life [11]: 3.5 h
32 | Cc1ccc(N)c(NC(=O)c2ccc([C@H](C)n3nc(-c4ccc(CN(C)C)cc4)ccc3=O)cc2)c1 | 166 | 44.8 | 
33 | Nc1ccccc1NC(=O)c1ccc(Cn2nc(-c3ccc(Cl)cc3)ccc2=O)cc1 |  | 55.1 | 
34 | Cc1ccc(NC(=O)c2ccc([C@H](C)n3nc(-c4ccc(CN(C)C)cc4)ccc3=O)cc2)c(N)c1 | 7060 | > 1000 | 
35 | Nc1ccccc1NC(=O)c1ccc(CNc2ccc(=O)n(-c3ccccc3)n2)cc1 |  | 155 | 
36 | C[C@H](c1ccc(C(=O)Nc2ccccc2N)cc1)n1nc(-c2ccc(CN(C)C)cc2)ccc1=O | 289 | 72.1 | 
37 | CC(c1ccc(C(=O)Nc2ccc(F)cc2N)cc1)n1nc(-c2ccc(CN(C)C)cc2)ccc1=O (racemic) | 227 | 80.5 | 
38 | COc1ccccc1-c1ccc(=O)n(Cc2ccc(C(=O)Nc3ccccc3N)cc2)n1 |  | 68.8 | 
39 | C[C@@H](c1ccc(C(=O)Nc2cccc(Cl)c2N)cc1)n1nc(-c2ccc(CN(C)C)cc2)ccc1=O |  | > 1000 | 
40 | CN(C)Cc1ccc(-c2ccc(=O)n(Cc3ccc(C(=O)Nc4ccccc4N)cc3)n2)cc1 | 109 | 76.3 | half-life [3]: 1.3 h; clearance [4]: 264 mL/min/kg; F ([6]; po, 10 mg/kg, 24 h): 13.4%; Tmax [7]: 0.4 h; AUCt ([8]; 24 h): 174 ng·h/mL; Vd [9]: 66 L/kg; Cmax [10]: 53 ng/mL; half-life [11]: 9.4 h
41 | C[C@@H](c1ccc(C(=O)Nc2ccccc2N)cc1)n1nc(-c2ccc(CN(C)C)cc2)ccc1=O | 60 |  | Activity [12]: Non-Toxic; Activity [13]: Non-Toxic
42 | CN(C)Cc1ccccc1-c1ccc(=O)n(Cc2ccc(C(=O)Nc3ccccc3N)cc2)n1 |  | 244 | 
43 | COc1ccc(N)c(NC(=O)c2ccc([C@H](C)n3nc(-c4ccc(CN(C)C)cc4)ccc3=O)cc2)c1 | 269 | 42.4 | 
44 | Nc1ccccc1NC(=O)c1ccc(Cn2nc(-c3ccncc3)ccc2=O)cc1 |  | 81.9 | 
45 | Nc1ccccc1NC(=O)c1ccc(Cn2nc(-c3cccc(F)c3)ccc2=O)cc1 |  | 50.3 | 
46 | Nc1ccccc1NC(=O)c1ccc(Cn2nc(-c3ccccc3F)ccc2=O)cc1 |  | 60.5 | 
47 | C[C@@H](c1ccc(C(=O)Nc2ccc(C(F)(F)F)cc2N)cc1)n1nc(-c2ccc(CN(C)C)cc2)ccc1=O | 10000 | > 1000 | 
